Data published in patent US8785452B2, “Anti-infective compounds” (priority 2008, dated 2014).
Where two headings read alike, the source gives them in different places.

Legend:
[1] = tested on: M. tuberculosis H37Rv-GFP; test: microbe, parasite or virus in culture; assay type: cell-based; settings: Mycobacterium tuberculosis; for inhibition at 0.2 µM: read-out: QUM Confirm % Inhibition 0.2 uM; for inhibition at 2 µM: read-out: QUM Confirm % Inhibition 2 uM; for inhibition at 20 µM: read-out: QUM Confirm % Inhibition 20 uM
[2] = tested on: M. tuberculosis H37Rv-GFP; test: microbe, parasite or virus in culture; assay type: cell-based, Mycobacterium tuberculosis; settings: Mycobacterium tuberculosis, H37RV, Macrophage; for inhibition at 0.2 µM: read-out: QIM Confirm % Inhibition 0.2 uM; for inhibition at 2 µM: read-out: QIM Confirm % Inhibition 2 uM
Raw264.7 cells = test: Cell number (CellNb) from image analysis of the phenotypic cell-based assay
[3] = confirmation, 0.2 uM, intracellular
[4] = confirmation, 2 uM, intracellular
[5] = confirmation, 20 uM, read-out: QIM Confirm % Inhibition 20 uM
[6] = primary screen, 20 μM, read-out: Primary QIM % Inhibition
[7] = read-out: Primary QIM % Inhibition
[8] = read-out: QIM Confirm % Inhibition 20 uM

Compound | inhibition at 0.2 µM [1] [%] | inhibition at 2 µM [1] [%] | inhibition at 20 µM [1] [%] | inhibition at 0.2 µM [2, 3] [%] | inhibition at 2 µM [2, 4] [%] | inhibition at 20 µM [2, 5] [%] | inhibition at 20 µM [2, 6] [%] | QIM Confirm CellNb 0.2 uM (Raw264.7 cells; confirmation, 0.2 uM) | QIM Confirm CellNb 2 uM (Raw264.7 cells; confirmation, 2 uM) | QIM Confirm CellNb 20 uM (Raw264.7 cells; confirmation, 20 uM) | Primary QIM CellNb (Raw264.7 cells; primary screen, 20 μM) | inhibition at 20 µM [2, 7] [%] | inhibition at 0.2 µM [2] [%] | inhibition at 2 µM [2] [%] | inhibition at 20 µM [2, 8] [%] | Primary QIM CellNb (Raw264.7 cells) | QIM Confirm CellNb 0.2 uM (Raw264.7 cells) | QIM Confirm CellNb 2 uM (Raw264.7 cells) | QIM Confirm CellNb 20 uM (Raw264.7 cells)
Clc1ccc(Nc2nc3nonc3nc2Nc2ccc(Cl)cc2)cc1 [IPK 000 003 90] | 44 | 68.8 | 72.7 | 2.2 | 43.2 | 67.9 | 15.7 | 142.3 | 75.6 | 133.4 | 78.0 |  |  |  |  |  |  |  | 
Fc1ccc(Nc2nc3nonc3nc2Nc2ccc(F)cc2)cc1 [IPK 000 003 91] | 46.6 | 41.4 | 76.7 | 2.9 | 36.8 | 76.4 | 31.6 | 220.9 | 148.9 | 128.8 | 63.0 |  |  |  |  |  |  |  | 
O=C1Nc2ccccc2/C1=N/NC(=O)c1ccncc1 [IPK 000 006 35] | 23.7 | 41.9 | 43.4 | 17.7 | 22.8 | 65.2 | 97.6 | 262.8 | 320.9 | 328.8 | 424.3 |  |  |  |  |  |  |  | 
N#CC(C#N)=NNc1ccc(I)cc1 [IPK 000 007 31] | 41 | 33 | 80.8 |  |  |  |  |  |  |  |  | -28.2 | 45.7 | 14.7 | 25.8 | 61.3 | 393.1 | 308.8 | 166.5
O=C(NN1C(=O)c2ccc(Br)cc2C1=O)c1ccncc1 [IPK 000 008 02] | 36.4 | 31.9 | 98.2 | 0.7 | 9.3 | 98 | 83.2 | 306.6 | 218.8 | 484.5 | 305.8 |  |  |  |  |  |  |  | 
CN1CCN(c2nc(Nc3ccc(OC(F)(F)F)cc3)nc(OCC(F)(F)F)n2)CC1 [IPK 000 008 12] | 36.5 | 39.7 | 48 | 2.7 | 18.9 | 78.4 | 64.1 | 292.9 | 225.6 | 248.0 | 396.3 |  |  |  |  |  |  |  | 
O=C(N/N=C/c1cc(Br)cc(Br)c1O)c1ccncc1 [IPK 000 009 33] | 31.8 | 44.5 | 69.8 | 8.5 | 92.5 | 56.9 | 79.9 | 264.8 | 475.9 | 333.6 | 314.5 |  |  |  |  |  |  |  | 
O=C(N/N=C/c1cc(Br)c(Br)o1)c1ccncc1 [IPK 000 009 41] | 28.3 | 59.6 | 99.4 | 19.6 | 92.8 | 99.6 | 92.9 | 257.8 | 488.3 | 446.5 | 345.8 |  |  |  |  |  |  |  | 
O=C(N/N=C\c1ccc(Cl)s1)c1ccncc1 [IPK 000 009 42] | 28.8 | 50.3 | 100 | 21.3 | 92.3 | 97.9 | 93.1 | 326.3 | 473.5 | 255.0 | 376.5 |  |  |  |  |  |  |  | 
CC1=NN(C(=O)c2ccncc2)C(O)(C(F)(F)F)C1 (centres unmarked) [IPK 000 009 78] | 30 | 61.1 | 100 | 17 | 50.2 | 88.6 | 103 | 325.5 | 414.4 | 376.1 | 454.5 |  |  |  |  |  |  |  | 
O=C(N/N=C/c1cccc(Br)c1)C1C2CC/C=C\CCC21 (centres unmarked) [IPK 000 010 06] | 39.5 | 43.1 | 39.2 | 17.1 | 18 | 81.8 | 81 | 412.0 | 344.9 | 380.9 | 322.8 |  |  |  |  |  |  |  | 
O=C1c2ccccc2-c2nc3nonc3nc21 [IPK 000 011 19] | 67.2 | 93.2 | 43.1 | 9.7 | 31.6 | 47.6 | 60 | 248.8 | 80.0 | 279.1 | 190.8 |  |  |  |  |  |  |  | 
Brc1ccc(/C=N/Nc2nc(N3CCOCC3)nc(N3CCOCC3)n2)o1 [IPK 000 011 65] | 39.8 | 40.6 | 96.3 | 4.7 | 23.4 | 41.9 | 6.5 | 259.6 | 336.5 | 201.1 | 145.5 |  |  |  |  |  |  |  | 
O=C(N/N=C/c1ccco1)c1ccncc1 [IPK 000 013 67] | 49.4 | 90.2 | 69.7 |  |  |  |  |  |  |  |  | 98.7 | 84.1 | 102 | 66.7 | 358.0 | 452.5 | 545.1 | 457.3
O=C(N/N=C/C=C/c1ccccc1)c1ccncc1 [IPK 000 013 68] | 50.4 | 77.1 | 77.6 | 50.9 | 102 | 67.2 | 65 | 400.1 | 528.8 | 438.8 | 276.3 |  |  |  |  |  |  |  | 
CCCCc1ccc(/C=N/NC(=O)c2ccncc2)cc1 [IPK 000 013 69] | 51.2 | 79.1 | 62.4 | 68.9 | 105 | 58.6 | 91.3 | 405.8 | 532.1 | 443.3 | 327.5 |  |  |  |  |  |  |  | 
